{"source": "ChEMBL document CHEMBL4190372", "about": "“Discovery of a Novel Oral Glucocorticoid Receptor Modulator (AZD9567) with Improved Side Effect Profile” (J Med Chem, 2018)", "key": {"[1]": {"biological_target": "T1, Glucocorticoid receptor (Homo sapiens, UniProt P04150)", "T1 sequence (P04150 whole entry)": "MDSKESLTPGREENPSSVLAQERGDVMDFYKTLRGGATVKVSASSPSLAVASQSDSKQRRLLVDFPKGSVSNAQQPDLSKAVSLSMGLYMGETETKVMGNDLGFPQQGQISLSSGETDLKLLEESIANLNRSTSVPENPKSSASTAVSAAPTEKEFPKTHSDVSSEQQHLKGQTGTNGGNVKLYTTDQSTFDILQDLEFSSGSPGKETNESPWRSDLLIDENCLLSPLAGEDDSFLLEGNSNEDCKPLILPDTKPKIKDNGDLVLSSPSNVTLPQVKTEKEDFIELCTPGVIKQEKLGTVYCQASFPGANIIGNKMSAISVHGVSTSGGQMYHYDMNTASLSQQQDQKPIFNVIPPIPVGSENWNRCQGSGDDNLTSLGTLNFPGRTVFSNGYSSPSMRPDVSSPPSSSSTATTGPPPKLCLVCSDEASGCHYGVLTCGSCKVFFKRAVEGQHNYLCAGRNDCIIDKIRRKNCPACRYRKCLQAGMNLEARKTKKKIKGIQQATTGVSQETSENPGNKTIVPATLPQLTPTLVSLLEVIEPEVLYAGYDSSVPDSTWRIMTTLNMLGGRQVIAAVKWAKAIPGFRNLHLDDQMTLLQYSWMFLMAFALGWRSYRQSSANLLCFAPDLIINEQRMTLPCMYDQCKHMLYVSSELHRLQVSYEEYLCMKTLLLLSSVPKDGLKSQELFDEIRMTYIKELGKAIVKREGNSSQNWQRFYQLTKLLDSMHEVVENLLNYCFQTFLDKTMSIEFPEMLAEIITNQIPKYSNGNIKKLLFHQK", "description": "Transactivation activity at glucocorticoid receptor (unknown origin) expressed in human ChaGoK1 cells incubated for 24 hrs by beta-galactosidase reporter gene assay"}, "[2]": {"biological_target": "T2, Glucocorticoid receptor (Homo sapiens) (UniProt P04150)", "T2 sequence (whole entry)": "T1 sequence (P04150 whole entry)", "description": "Transrepression of GR in cryopreserved human fetal osteoblasts assessed as inhibition of OPG mRNA expression after 4 hrs by RT-qPCR analysis"}, "[3]": {"biological_target": "T1, Glucocorticoid receptor", "experiment": "Transactivation of GR in cryopreserved human primary hepatocytes assessed as upregulation of TAT mRNA expression level up to 1 uM after 18 hrs by RT-qPCR analysis"}, "[4]": {"biological_target": "T3, Progesterone receptor (Homo sapiens, UniProt P06401)", "T3 sequence (P06401 whole entry)": "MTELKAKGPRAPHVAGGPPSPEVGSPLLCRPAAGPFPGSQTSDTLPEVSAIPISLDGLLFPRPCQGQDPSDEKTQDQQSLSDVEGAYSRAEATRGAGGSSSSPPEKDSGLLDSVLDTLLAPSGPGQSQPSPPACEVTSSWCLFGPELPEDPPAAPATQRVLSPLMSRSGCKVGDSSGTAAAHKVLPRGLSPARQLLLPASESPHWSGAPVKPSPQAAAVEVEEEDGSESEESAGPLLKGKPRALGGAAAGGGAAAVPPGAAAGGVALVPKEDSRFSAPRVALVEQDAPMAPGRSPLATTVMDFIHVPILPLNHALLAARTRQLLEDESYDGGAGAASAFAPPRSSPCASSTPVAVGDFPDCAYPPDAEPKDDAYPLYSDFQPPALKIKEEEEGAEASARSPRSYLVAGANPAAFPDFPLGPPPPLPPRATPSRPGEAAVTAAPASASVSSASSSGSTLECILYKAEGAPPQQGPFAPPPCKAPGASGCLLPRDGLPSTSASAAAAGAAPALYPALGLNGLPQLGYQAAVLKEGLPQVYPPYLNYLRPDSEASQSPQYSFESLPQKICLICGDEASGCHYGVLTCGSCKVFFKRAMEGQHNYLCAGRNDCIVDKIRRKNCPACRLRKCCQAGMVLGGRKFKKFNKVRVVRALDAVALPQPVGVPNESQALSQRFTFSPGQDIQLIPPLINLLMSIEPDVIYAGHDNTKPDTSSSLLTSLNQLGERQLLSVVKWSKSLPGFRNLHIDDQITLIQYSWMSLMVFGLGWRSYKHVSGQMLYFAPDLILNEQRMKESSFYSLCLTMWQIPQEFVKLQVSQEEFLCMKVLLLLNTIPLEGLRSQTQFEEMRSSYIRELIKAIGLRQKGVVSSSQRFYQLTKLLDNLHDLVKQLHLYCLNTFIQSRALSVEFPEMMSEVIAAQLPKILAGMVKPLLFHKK", "experiment": "Displacement of [3H]progesterone from progesterone receptor in human T47D cells after 1200 mins by scintillation counting method", "assay_type": "cell-based"}, "[5]": {"experiment": "Ratio of drug level in rat blood to plasma", "assay_type": "ADME, cell-free", "conditions": "blood and plasma; call rule not given here"}, "[6]": {"test_system": "Rattus norvegicus", "experiment": "Antiinflammatory activity in streptococcal cell wall reactivation Lewis rat model assessed as reduction of joint swelling at 0.1 mg/kg administered once daily for 8 days by oral gavage starting 1 day prior to streptococcal cell wall challenge measured during 6 days post challenge relative to control", "assay_type": "functional", "set-up": "scale not given: the % may be the effect or the level left"}, "[7]": {"experiment": "Terminal half life in Han-Wistar rat at 2.1 mg/kg, po", "assay_type": "ADME, organism-based", "conditions": "in vivo, read-out: beta t1/2 (converted)"}, "[8]": {"test_system": "Rattus norvegicus", "experiment": "Dose normalized AUC (0 to infinity) in Han-Wistar rat at 2.1 mg/kg, po", "assay_type": "ADME, organism-based", "conditions": "in vivo"}, "[9]": {"biological_target": "T4, Estrogen receptor (Homo sapiens, UniProt P03372)", "T4 sequence (P03372 whole entry)": "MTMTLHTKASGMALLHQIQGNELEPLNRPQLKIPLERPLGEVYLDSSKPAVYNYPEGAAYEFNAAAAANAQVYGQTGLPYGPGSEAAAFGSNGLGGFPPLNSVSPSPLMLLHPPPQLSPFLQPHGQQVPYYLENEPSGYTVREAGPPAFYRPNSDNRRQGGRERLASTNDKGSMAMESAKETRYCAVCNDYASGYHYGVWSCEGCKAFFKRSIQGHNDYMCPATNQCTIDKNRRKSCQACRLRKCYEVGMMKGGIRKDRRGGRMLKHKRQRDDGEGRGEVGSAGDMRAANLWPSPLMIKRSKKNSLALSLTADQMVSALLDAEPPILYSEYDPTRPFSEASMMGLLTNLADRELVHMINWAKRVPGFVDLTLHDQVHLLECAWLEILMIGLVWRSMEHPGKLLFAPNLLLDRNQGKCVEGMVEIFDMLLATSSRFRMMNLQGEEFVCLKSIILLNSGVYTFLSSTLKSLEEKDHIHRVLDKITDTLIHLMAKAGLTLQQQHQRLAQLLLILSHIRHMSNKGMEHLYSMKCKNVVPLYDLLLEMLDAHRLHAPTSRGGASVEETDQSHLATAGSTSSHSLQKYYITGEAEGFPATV", "experiment": "Binding affinity to human ERalpha expressed in Sf9 cells by fluoligand binding-based fluorescence polarization method"}, "[10]": {"biological_target": "T1, Glucocorticoid receptor", "remark": "listed apart in the source", "description": "Transrepression activity at glucocorticoid receptor (unknown origin) expressed in human ChaGoK1 cells assessed as inhibition of PMA-stimulated gene expression incubated for 24 hrs by beta-galactosidase reporter gene assay"}, "[11]": {"experiment": "Tmax in Han-Wistar rat at 2.1 mg/kg, po", "assay_type": "ADME, organism-based", "conditions": "in vivo"}, "[12]": {"biological_target": "T2, Glucocorticoid receptor (Homo sapiens)", "remark": "listed apart in the source", "description": "Transrepression of GR in human whole blood assessed as inhibition of LPS-induced TNF-alpha release preincubated for 45 mins followed by LPS addition after 18 hrs by AlphaLISA method"}, "[13]": {"biological_target": "Estrogen receptor beta (Homo sapiens, UniProt Q92731)", "sequence (Q92731 whole entry)": "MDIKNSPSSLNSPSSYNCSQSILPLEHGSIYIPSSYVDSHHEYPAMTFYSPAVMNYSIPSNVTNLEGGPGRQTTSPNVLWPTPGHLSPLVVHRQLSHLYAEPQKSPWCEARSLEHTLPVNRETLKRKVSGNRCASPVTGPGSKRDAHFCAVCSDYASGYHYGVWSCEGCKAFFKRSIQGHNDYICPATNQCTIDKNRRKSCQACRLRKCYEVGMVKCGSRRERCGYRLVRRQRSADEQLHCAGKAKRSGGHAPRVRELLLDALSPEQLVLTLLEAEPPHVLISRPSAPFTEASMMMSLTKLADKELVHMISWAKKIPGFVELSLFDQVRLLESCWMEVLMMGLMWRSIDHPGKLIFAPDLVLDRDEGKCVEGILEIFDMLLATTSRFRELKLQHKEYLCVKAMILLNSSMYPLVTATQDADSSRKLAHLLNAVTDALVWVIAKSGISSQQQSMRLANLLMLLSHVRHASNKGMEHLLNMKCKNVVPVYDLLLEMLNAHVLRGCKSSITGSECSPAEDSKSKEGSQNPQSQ", "experiment": "Binding affinity to human ERbeta expressed in Sf9 cells by fluoligand binding-based fluorescence polarization method"}}}
{"smiles": "CC(C)[C@H](NC(=O)C(C)(F)F)[C@H](Oc1ccc2c(cnn2-c2ccc(=O)n(C)c2)c1)c1ccccc1", "note": "[MIZACORAT]", "values": [{"measurement": "EC50", "setting": "[1]", "result": 11, "unit": "nM"}, {"measurement": "fIC20", "setting": "[2]", "result": 0.74, "unit": "nM"}, {"measurement": "Activity", "setting": "[3]", "result": "Not Active"}, {"measurement": "IC50", "setting": "[4]", "result": 5300, "unit": "nM"}, {"measurement": "blood plasma ratio", "setting": "[5]", "result": 0.64}, {"measurement": "Activity", "setting": "[6]", "result": 42, "unit": "%"}, {"measurement": "half-life", "setting": "[7]", "result": 1.9, "unit": "h"}, {"measurement": "AUC/dose", "setting": "[8]", "result": 5.2, "unit": "µM·h"}, {"measurement": "IC50", "setting": "[9]", "result": "> 100000", "unit": "nM"}, {"measurement": "IC50", "setting": "[10]", "result": 7, "unit": "nM"}, {"measurement": "Tmax", "setting": "[11]", "result": 2, "unit": "h"}, {"measurement": "fIC30", "setting": "[12]", "result": 1.4, "unit": "nM"}, {"measurement": "IC50", "setting": "[13]", "result": "> 100000", "unit": "nM"}]}
